In patent US20090305271A1, “In Vitro Assay Based on Camp Levels Modulated by Gi-Coupled Receptors” (priority 2006, published 2009):

Tests used:
Assay type in all cases: cell-based
[1] = molecular target: T1, human dopamine D4.4 receptor (Homo sapiens, UniProt P21917); assay: cAMP assay with NKH477 or forskolin as activator, D4.4 receptor stably expressed in CHO-K1; details: D4.4 in CHO-K1, 1 μM of agonist (dopamine)
T1 construct: expressed in transfected cells; host or cells: CHO-K1
T1 sequence (P21917 1-419): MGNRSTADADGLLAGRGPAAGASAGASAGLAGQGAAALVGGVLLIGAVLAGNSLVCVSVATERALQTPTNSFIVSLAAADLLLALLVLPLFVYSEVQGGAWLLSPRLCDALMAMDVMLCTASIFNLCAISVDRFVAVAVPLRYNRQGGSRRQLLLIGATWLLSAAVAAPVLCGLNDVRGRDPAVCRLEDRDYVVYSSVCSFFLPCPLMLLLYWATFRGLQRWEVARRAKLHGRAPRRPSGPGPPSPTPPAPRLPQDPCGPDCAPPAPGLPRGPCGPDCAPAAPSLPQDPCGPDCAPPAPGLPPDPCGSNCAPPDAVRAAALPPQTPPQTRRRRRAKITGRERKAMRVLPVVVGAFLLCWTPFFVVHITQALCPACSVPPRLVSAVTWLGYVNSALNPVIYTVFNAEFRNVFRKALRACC
Description: cAMP measurements on CHO-K1 cells that stably expressed the human muscarinic M4 or the human dopamine D4.4 receptor were performed via the HTRF (homogeneous time-resolved fluorescence) technology (CIS Bio, France). The principle of these cAMP assays is based on a competition between cAMP produced by cells and cAMP-XL665 conjugate for the binding with monoclonal anti-cAMP-cryptate conjugate. The HTRF) conjugates are prepared in lysis buffer so that the cell lysis and the detection step can be performed simultaneously.
(§1) To measure the production of cAMP from cells, cells were harvested and resuspended with HBSS Buffer. Varying concentrations of cells were plated in a 96-well plate. Serial dilutions of agonists (Dopamine or Epinephrine) were added and incubated for 10′ at room temperature with the cells. Forskolin or NKH477 were added, and the plate was incubated at 37° C. for 10 minutes. After cell induction, the assay reagents were added as outlined in the assay procedure.
For the D4—CHO K1 cell line (D4 stably transfected in CHO K1 host cell line) 0.7 μM of NKH477 and Forskolin were used with or without 1 μM of Dopamine
(§2) c) CHO-K1 cells expressing D4.4, alpha2c H3 and D2S receptors were exposed to increasing concentrations of ligands, respectively dopamine, epinephrine, histamine and dopamine ranging from 0.01 nM to 10 μM in the presence of 30 μM forskolin or 10 μM NKH-477.

[2] = molecular target: T2, alpha 2c receptor (Homo sapiens, UniProt P18825); assay: cAMP assay with NKH477 or forskolin as activator, alpha 2c receptor stably expressed in CHO-S; details: alpha 2c in CHO-S, 1 μM of agonist (epinephrine)
T2 construct: expressed in transfected cells; host or cells: CHO-S
T2 sequence (P18825 1-462): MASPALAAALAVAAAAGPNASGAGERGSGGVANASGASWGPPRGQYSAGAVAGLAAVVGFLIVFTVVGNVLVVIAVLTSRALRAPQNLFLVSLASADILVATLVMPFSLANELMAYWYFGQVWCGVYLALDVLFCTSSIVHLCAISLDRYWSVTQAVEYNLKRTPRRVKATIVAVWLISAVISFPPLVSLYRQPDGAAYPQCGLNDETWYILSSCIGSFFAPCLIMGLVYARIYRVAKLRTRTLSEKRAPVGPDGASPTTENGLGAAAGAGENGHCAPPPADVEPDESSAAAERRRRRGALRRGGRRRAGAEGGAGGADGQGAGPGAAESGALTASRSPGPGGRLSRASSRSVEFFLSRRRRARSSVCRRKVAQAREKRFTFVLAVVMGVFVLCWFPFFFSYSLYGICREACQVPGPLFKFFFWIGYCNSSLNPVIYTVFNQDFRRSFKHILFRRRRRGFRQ
Description: as §1
For the alpha2c—CHO S cell line (alpha 2c stably transfected in CHO S host cell line) was incubate with 5 μM of NKH477 and Forskolin 10′ at 37° C. without or with 1 μM of Epinephrine
as §2

[3] = tested on: adenylyl cyclase isoform V and/or VI; assay: cAMP production with NKH-477 instead of forskolin as in vitro activator of cAMP formation; details: cells expressing the adenylyl cyclase isoform V and/or VI
[4] = molecular target: T3, human muscarinic M4 (Homo sapiens, UniProt P08173); assay: cAMP HTRF functional assay, forskolin-induced cAMP production in M4/CHO/miRNA cell line
T3 construct: expressed in transfected cells; host or cells: CHO-K1 (M4/CHO and M4/CHO/miRNA cell lines)
T3 sequence (P08173 1-479): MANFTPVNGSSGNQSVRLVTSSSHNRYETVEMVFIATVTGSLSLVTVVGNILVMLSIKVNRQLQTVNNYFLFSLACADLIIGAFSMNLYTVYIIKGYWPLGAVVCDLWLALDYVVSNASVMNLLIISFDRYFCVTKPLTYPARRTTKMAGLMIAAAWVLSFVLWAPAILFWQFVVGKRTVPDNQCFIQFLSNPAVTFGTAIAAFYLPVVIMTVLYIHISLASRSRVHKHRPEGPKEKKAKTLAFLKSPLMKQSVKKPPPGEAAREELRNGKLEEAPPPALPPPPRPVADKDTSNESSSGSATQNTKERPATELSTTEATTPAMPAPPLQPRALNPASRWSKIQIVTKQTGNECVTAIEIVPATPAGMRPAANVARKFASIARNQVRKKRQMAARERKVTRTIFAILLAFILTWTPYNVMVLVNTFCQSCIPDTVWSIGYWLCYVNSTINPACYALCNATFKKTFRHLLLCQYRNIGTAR
Description: CHO-K1 stably expressing the human muscarinic M4 or the human dopamine D4.4 receptor were cultured under standard conditions. Cells were harvested by EDTA, washed once in phosphate buffered saline and resuspended in assay buffer (HBSS containing 0.1% glucose and 0.5 mM IBMX). The cells were dispensed into a black 96 half-well plate at a cell density of 10,000-15,000 cells. After incubation for 30 min at room temperature or at 37° C., an equal volume of assay buffer containing forskolin, then acetylcholine or quimpirole was added to the cells. After incubation for 30 min at room temperature or 37° C., cAMP detection was performed following the protocol described above. The plate was incubated for one more hour at room temperature and then measured on a RUBYstar^a (BMG Labtechnologies) time-resolved fluorescence reader. […]

C=C[C@@]1(C)CC(=O)[C@]2(O)[C@@]3(C)[C@@H](O)CCC(C)(C)[C@@H]3[C@H](OC(=O)CCN(C)C)[C@H](OC(C)=O)[C@@]2(C)O1.Cl [NKH477, 6-(3-dimethylaminopropionyl) forskolin hydrochloride]
enhancement of cAMP production inhibition with NKH477 instead of forskolin [1]: up to 20% | signal window compared with Forskolin [1]: greater signal window than Forskolin | enhancement of cAMP production inhibition with NKH477 instead of forskolin [2]: up to 20% | signal window compared with Forskolin [2]: greater signal window than Forskolin | increase of the production of cAMP instead of forskolin [3]: up to 20%

O=C1CCCN1CC#CCN1CCCC1 [Oxotremorine]
inhibition at 1 µM ([4]; 1 μM, M4/CHO/miRNA cell line, read-out: inhibition of Forskolin stimulated cAMP production): > 85% | increase of inhibitory potency on Forskolin induced cAMP production compared to wild CHO cells expressing M4 receptor ([4]; M4/CHO/miRNA versus M4/CHO): 25-30%
